Assay results: patent US11548855B2, “Pyrazole amide compound and application thereof, and fungicide” (Shandong United Pesticide Industry Co. Ltd., priority 2017, dated 2023)
Read-outs that look alike come from different tables or passages of the source.

How the values were obtained:
[1] = test system: corn rust (Puccinia sorghi); test: Greenhouse pot test, corn rust; format: in vivo; conditions: Puccinia sorghi, 168 h, read-out: Control effect (%) Corn rust; for pest or weed control at 6.25 µg/mL: 6.25 mg/L; for pest or weed control at 25 µg/mL: 25 mg/L; for pest or weed control at 100 µg/mL: 100 mg/L; for pest or weed control at 1.5625 µg/mL: 1.5625 mg/L; for pest or weed control at 3.125 µg/mL: 3.1250 mg/L
Method: (§1) Test method: each of the test compounds in Table 1 was dispensed to 5 wt % emulsifiable concentrate (hereinafter referred to as 5% EC). The greenhouse pot test was used in each experiment, and the effective concentrations of each compound were illustrated in Table 1.
Corn rust: two-three leaf stage potted corn seedling with uniform growth was selected and made foliar spray treatment with 5% EC, the blank control sprayed with clean water was additionally arranged, three replicates were carried out. After 24 h, the leaves of the host plants were inoculated with sporangial suspensions of the fungi corn rust (Puccinia sorghi), the plants were stored in humidity chamber (temperature: lighting 25° C., dark 20° C., relative humidity 95-100%) and then transferred to greenhouse (25±1° C.) 24 h after infection. After 7 days, the screening results were investigated according to the disease incidence condition of blank control.
(§2) The investigation method: “Guidelines for the field efficacy trials of pesticides” was adopted as the grading standard, and the control effect in a unit of % was calculated based on the disease index. Disease index=Σ(number of diseased leaves at each grade×relative grade value)×100/(total number of leaves×9); Control effect (%)=(disease index of control−disease index of treated)×100/disease index of control;
(§3) The compounds provided by the present disclosure and some control compounds were tested by the same methods in the Test example 1, except that the effective concentrations of the compounds in this Test example are shown in Table 2.

[2] = test system: soybean rust (Phakopsora pacchyrhizi Sydow); test: Greenhouse pot test, soybean rust; format: in vivo; conditions: Glycine max, 168 h, read-out: Control effect (%) Soybean rust; for pest or weed control at 6.25 µg/mL: 6.25 mg/L; for pest or weed control at 25 µg/mL: 25 mg/L; for pest or weed control at 100 µg/mL: 100 mg/L; for pest or weed control at 1.5625 µg/mL: 1.5625 mg/L; for pest or weed control at 3.125 µg/mL: 3.1250 mg/L
Method: as §1
Soybean rust: two-leaf stage potted soybean seedling with uniform growth was selected and made foliar spray treatment with 5% EC, the blank control sprayed with clean water was additionally arranged, three replicates were carried out. After 24 h, the leaves of the host plants were inoculated with sporangial suspensions of the fungi soybean rust (Phakopsora pacchyrhizi Sydow), the plants were stored in humidity chamber (temperature 20-25° C., relative humidity>95%) and then transferred to greenhouse (25±1° C.) 8-16 h after infection. After 7 days, the screening results were investigated according to the disease incidence condition of blank control.
as §2, §3

cucumber powdery mildew = test: Greenhouse pot test, cucumber powdery mildew; format: in vivo; conditions: for pest or weed control at 6.25 µg/mL / pest or weed control at 25 µg/mL / pest or weed control at 100 µg/mL: Cucumis sativus, 192 h, read-out: Control effect (%) Cucumber powdery mildew
Method: as §1
Cucumber powdery mildew: cucumber seedling in a true leaf period with uniform growth was selected, and dried in the shade for 24 h after spray treatment. Fresh cucumber powdery mildew spores on the cucumber leaves were collected and washed, and filtered through a double gauze to prepare a spores suspension with concentration of about 100,000/mL, then spray inoculation was applied. The test materials inoculated were moved into a greenhouse (lighting 21-23° C.), after 8 days, the grading investigation was carried out according to the disease incidence condition of blank control, and the control effect in a unit of % was calculated according to disease index.
as §2, §3

[3] = test system: wheat powdery mildew (Erysiphe graminis); test: Greenhouse pot test, wheat powdery mildew; format: in vivo; conditions: Blumeria graminis, 168 h, read-out: Control effect (%) Wheat powdery mildew; for pest or weed control at 6.25 µg/mL: 6.25 mg/L; for pest or weed control at 25 µg/mL: 25 mg/L; for pest or weed control at 100 µg/mL: 100 mg/L; for pest or weed control at 1.5625 µg/mL: 1.5625 mg/L; for pest or weed control at 3.125 µg/mL: 3.1250 mg/L
From the text: as §1
Wheat powdery mildew: two-leaf stage potted wheat seedling with uniform growth was selected and made foliar spray treatment with 5% EC, the blank control sprayed with clean water was additionally arranged, three replicates were carried out. After 24 h, the leaves of the host plants were inoculated by shake-down method with sporangial suspensions of the fungi wheat powdery mildew (Erysiphe graminis), the plants were stored in a greenhouse (25±1° C.). After 7 days, the screening results were investigated according to the disease incidence condition of blank control.
as §2, §3

soybean rust = test: Field trial, soybean rust; format: in vivo, Phakopsora pacchyrhizi Sydow; conditions: dosage 50 mg/L, sprayed 2 times
Method: III. The Soybean Rust Test Method:
Spray method: Stein and leaf spraying (Applicator: Xinkangda lithium battery electric sprayer).
Test crops: soybean (cultivars: Glycine max(L) Merr)
The test was carried out in Shenyang, the test field was loam with rich organic matters and normal management of fertilizer and water, and no other pesticide was applied during the test.
The arrangement of the test plot was random block permutation; the area of the test plot: 25 m^2; repeat times: 3 times; spray time and frequency: 2 times on Aug. 11, 2018 and Aug. 21, 2018 respectively. Spray dosage: each treatment was repeated 3 times, the total water consumption was 8 L. No other pesticide was applied during the test. […] 15-20 days after the second spray treatment, the control effect was investigated.
The incidence of disease spots in each plot was investigated by diagonal selecting 5 samples/plot and 20 plants/samples, 10 leaves/plant was surveyed.
The grading standard of crop disease was as follows:
Grade 0: no leaf-spot area;
Grade 1: the ratio of leaf-spot area to leaf area is less than 5%;
Grade 3: the ratio of leaf-spot area to leaf area is between 6-25%;
Grade 5: the ratio of leaf-spot area to leaf area is between 26-50%;
Grade 7: the ratio of leaf-spot area to leaf area is between 51-75%;
Grade 9: the ratio of leaf-spot area to leaf area is between 76-100%;
According to the relevant content of the “Guidelines for the field efficacy trials of pesticides of the People's Republic of China (PRC)”, the disease index was calculated according to the grading standard, and the control effect in a unit of % was calculated based on the disease index, and the test data of significance analysis was performed by using DPS evaluation system (DMRT).

[4] = test system: rice sheath blight fungi (Rhizoctonia solami); test: Greenhouse pot test, rice sheath blight; format: in vivo
Method: as §3
In addition, the test method for rice sheath blight as following steps:
The potted rice seedling with uniform growth was selected, and dried in the shade for 24 h after spray treatment, then inoculated 3 blocks of 0.25 cm^2 rice sheath blight fungi (Rhizoctonia solami) at the base of seedling by clamp inoculation bacterium block method. The test materials inoculated were moved into greenhouse (temperature: lighting 28° C., dark 25° C., relative humidity 95%), after 7 days, investigate 5 leaves of per block treatment, the grading investigation was carried out according to the disease incidence condition of sheaths and leaves of rice, “Guidelines for the field efficacy trials of pesticides” was adopted as the grading standard, the disease index was calculated according to the grading standard, and the control effect in a unit of % was calculated according to disease index.

| SMILES | pest or weed control at 6.25 µg/mL [1] | pest or weed control at 25 µg/mL [1] | pest or weed control at 100 µg/mL [1] | pest or weed control at 6.25 µg/mL [2] | pest or weed control at 25 µg/mL [2] | pest or weed control at 100 µg/mL [2] | pest or weed control at 6.25 µg/mL (cucumber powdery mildew; greenhouse pot, 6.25 mg/L) | pest or weed control at 25 µg/mL (cucumber powdery mildew; greenhouse pot, 25 mg/L) | pest or weed control at 100 µg/mL (cucumber powdery mildew; greenhouse pot, 100 mg/L) | pest or weed control at 6.25 µg/mL [3] | pest or weed control at 25 µg/mL [3] | pest or weed control at 100 µg/mL [3] | also measured |
| --- | --- | --- | --- | --- | --- | --- | --- | --- | --- | --- | --- | --- | --- |
| Cn1nc(C(F)F)c(C(=O)Nc2ccccc2Oc2ccc(C(F)(F)F)cc2C(F)(F)F)c1F [Compound 6] | 98% | 100% | 100% | 90% | 100% | 100% | 50% | 75% | 98% | 85% | 90% | 92% |  |
| Cn1cc(C(=O)Nc2ccccc2Oc2cc(C(F)(F)F)ccc2C(F)(F)F)c(C(F)F)n1 [Compound 5] | 70% | 75% | 85% | 95% | 98% | 100% |  |  |  | 10% | 40% | 50% |  |
| Cn1cc(C(=O)Nc2ccccc2Oc2ccc(Cl)cc2Cl)c(C(F)F)n1 [Compound 7] | 90% | 95% | 100% | 96% | 98% | 100% | 30% | 60% | 89% | 60% | 75% | 90% | pest or weed control at 1.5625 µg/mL [1]: 50%; pest or weed control at 3.125 µg/mL [1]: 60%; pest or weed control at 1.5625 µg/mL [2]: 90%; pest or weed control at 3.125 µg/mL [2]: 100%; pest or weed control at 1.5625 µg/mL [3]: 0%; pest or weed control at 3.125 µg/mL [3]: 50% |
| CO/C=C(/C(=O)OC)c1ccccc1Oc1cc(Oc2ccccc2C#N)ncn1 [Azoxystrobin] |  |  |  |  |  |  |  |  |  |  |  |  | Control effect (%) (soybean rust): 84.62%; Control effect (%) Cucumber powdery mildew (cucumber powdery mildew; greenhouse pot, 100 mg/L): 0%; Control effect (%) Cucumber powdery mildew (cucumber powdery mildew; greenhouse pot, 400 mg/L): 30% |
| CC1COC(Cn2cncn2)(c2ccc(Oc3ccc(Cl)cc3)cc2Cl)O1 (stereo not drawn) [Difenoconazole] |  |  |  |  |  |  |  |  | 80% |  |  |  |  |
| Cn1nc(C(F)F)c(C(=O)Nc2ccccc2Oc2ccc(C(F)(F)F)cc2Br)c1F [Compound 2] | 98% | 100% | 100% | 96% | 100% | 100% | 45% | 55% | 88% | 70% | 75% | 85% |  |
| Cn1cc(C(=O)Nc2ccccc2Oc2ccc(C(F)(F)F)cc2Cl)c(C(F)F)n1 [Compound 8] | 95% | 99% | 100% | 99% | 100% | 100% | 40% | 60% | 95% | 65% | 75% | 94% | pest or weed control at 1.5625 µg/mL [1]: 85%; pest or weed control at 3.125 µg/mL [1]: 98%; pest or weed control at 1.5625 µg/mL [2]: 98%; pest or weed control at 3.125 µg/mL [2]: 100%; pest or weed control at 1.5625 µg/mL [3]: 70%; pest or weed control at 3.125 µg/mL [3]: 90% |
| Fc1ccc([C@]2(Cn3cncn3)O[C@H]2c2ccccc2Cl)cc1 (racemic) [Epoxiconazole] |  |  |  |  |  |  |  |  |  |  |  |  | Control effect (%) Rice sheath blight ([4]; 0.625 mg/L): 30%; Control effect (%) Rice sheath blight ([4]; 2.5 mg/L): 70%; Control effect (%) Rice sheath blight ([4]; 10 mg/L): 100% |
| Cn1cc(C(=O)Nc2ccccc2-c2cc(F)c(F)c(F)c2)c(C(F)F)n1 [Fluxapyroxad] |  |  |  |  |  |  |  |  |  |  |  |  | Control effect (%) Cucumber powdery mildew (cucumber powdery mildew; greenhouse pot, 1.5625 mg/L): 55%; Control effect (%) Cucumber powdery mildew (cucumber powdery mildew; greenhouse pot, 6.25 mg/L): 95%; Control effect (%) Cucumber powdery mildew (cucumber powdery mildew; greenhouse pot, 25 mg/L): 100%; Control effect (%) Cucumber powdery mildew (cucumber powdery mildew; greenhouse pot, 100 mg/L): 100% |
| Cn1nc(C(F)F)c(C(=O)Nc2ccccc2Oc2ccc(C(F)(F)F)cc2I)c1F [Compound 3] | 75% | 100% | 100% | 85% | 100% | 100% | 45% | 70% | 95% | 65% | 80% | 80% |  |
| CCCCc1c(C)nc(NCC)[nH]c1=O [Ethirimol] |  |  |  |  |  |  |  |  |  |  |  |  | pest or weed control at 100 µg/mL (cucumber powdery mildew): 100% |
